Values quoted from earlier work, collected in PMC5493349, “Quaternary structure is an essential component that contributes to the sophisticated allosteric regulation mechanism in a key enzyme from Mycobacterium tuberculosis” (PLoS ONE, 2017).

What was measured:
Conditions in all cases: cited from earlier work
[1] = biological target: T1, wild-type MtuDAH7PS (Mycobacterium tuberculosis, UniProt O53512)
[2] = biological target: T1, wild-type MtuDAH7PS; remark: listed apart in the source
[3] = biological target: T1, wild-type MtuDAH7PS; remark: listed apart in the source

T1 sequence (O53512 whole entry): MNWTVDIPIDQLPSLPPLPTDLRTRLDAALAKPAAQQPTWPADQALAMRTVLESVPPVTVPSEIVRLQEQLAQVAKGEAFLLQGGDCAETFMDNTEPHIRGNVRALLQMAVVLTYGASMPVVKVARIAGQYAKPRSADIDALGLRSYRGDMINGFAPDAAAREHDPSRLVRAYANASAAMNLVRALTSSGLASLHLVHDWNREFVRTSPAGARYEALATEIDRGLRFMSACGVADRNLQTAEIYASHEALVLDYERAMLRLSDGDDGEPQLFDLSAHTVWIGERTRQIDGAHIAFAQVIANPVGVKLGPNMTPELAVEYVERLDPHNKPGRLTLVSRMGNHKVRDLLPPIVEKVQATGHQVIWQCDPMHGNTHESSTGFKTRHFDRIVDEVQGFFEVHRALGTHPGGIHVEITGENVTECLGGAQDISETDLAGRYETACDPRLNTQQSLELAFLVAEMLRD

Row | SMILES | E4P0.5 [1] | inhibition of wild type MtuDAH7PS by Trp alone [2] | reduction in Kd of Trp after pre-incubation with Phe [3]
1 | O=C[C@H](O)[C@H](O)COP(=O)(O)O [E4P, erythrose 4-phosphate] | 382 µM |  | 
2 | N[C@@H](Cc1c[nH]c2ccccc12)C(=O)O [Trp, L-Trp] |  | not inhibitory | 4 fold
